Paper PMC8002893, “Influence of Complexation of Thiosemicarbazone Derivatives with Cu (II) Ions on Their Antitumor Activity against Melanoma Cells” (International Journal of Molecular Sciences, 2021)

Experiments:
[1] = test system: BJ human normal fibroblast cells; assay: MTT cell viability assay, BJ normal fibroblasts; format: cell-based; details: MTT test, 24 h treatment
Description: (§1) The evaluation of cytotoxicity of tested compounds was carried out on the G361, A375, and SK-MEL-28 human melanoma cells and BJ human normal fibroblast cells. The cell lines were obtained from American Type Culture Collection (ATCC, Manassas, VA, USA). The cells were cultured at 37 °C in the presence of 5% CO2 in atmosphere. The culture medium (Dulbecco’s Modified Eagle’s Medium for G361 and A375 and Eagle’s Minimum Essential Medium for SK-MEL-28 and BJ) was supplemented with 10% foetal bovine serum. The cells morphology was examined under inverted phase contrast microscope Nikon Eclipse Ti (Nikon, Tokyo, Japan). The authenticity of tested cell lines was verified by short tandem repeat (STR) genotyping in the Department of Forensic Medicine (Medical University of Lublin, Lublin, Poland).
(§2) The cells were seeded into 96-well plates (in concentration: BJ, A375, and SK-MEL-28—1 × 10^5 cells/mL, G361—1.5 × 10^5 cells/mL) and cultured until they reach 70–80% confluency. Then the cells were incubated with tested compounds and dacarbazine in concentrations ranging from 10 to 500 µM or DMSO as vehicle in control cultures for next 24 h (max. DMSO concentration <0.5%). The compounds cytotoxicity was evaluated with the MTT colorimetric method based on the ability of viable cells to the transformation of tetrazolium salts (3-[4,5-dimethylthiazol-2-yl]-2,5-) diphenyltetrazolium bromide, MTT) to purple formazan, by cellular dehydrogenases. After 24-h-incubation cell cultures were supplemented with 20 µL of 5 mg/mL MTT (Thermofisher, Waltham, MA, USA) stock in PBS (Corning, NY, USA), and the incubation was continued for 4 h at 37 °C. Next, the medium with MTT was removed, and the formed crystals were dissolved in 200 µL of DMSO (dimethyl sulfoxide, Avantor, Gliwice, Poland). The solution absorbency was measured at 570 nm, using a PowerWave™ xs microplate spectrophotometer (BioTek Instruments, Winooski, VT, USA). The experiment was performed three times with three replicates for each concentration of tested compounds. IC50 values were determined using the AAT Bioquest IC50 calculator [51]. On the basis of obtained IC50 values for normal and malignant cells, A375 cell line and three tested compounds (CuT1, Cu10, CuT16) were chosen for further investigation.

[2] = test system: A375 human melanoma cells; assay: MTT cell viability assay, A375 melanoma; format: cell-based; details: A375, MTT test, 24 h treatment
Description: as §1, §2

[3] = test system: SK-MEL-28 human melanoma cells; assay: MTT cell viability assay, SK-MEL-28 melanoma; format: cell-based; details: SK-MEL-28, MTT test, 24 h treatment
Description: as §1, §2

[4] = test system: G361 human melanoma cells; assay: MTT cell viability assay, G361 melanoma; format: cell-based; details: G361, MTT test, 24 h treatment
Description: as §1, §2

| SMILES | melting point | IC50 ([1]; Homo sapiens, Fibroblast) | IC50 ([2]; Homo sapiens, A-375) | IC50 ([3]; Homo sapiens) | IC50 ([4]; Homo sapiens, G-361) | further results |
| --- | --- | --- | --- | --- | --- | --- |
| S=C(NN=Cc1ccc(Cl)c(Cl)c1)Nc1ccc(Cl)cc1 [T17, N-(4-Chlorophenyl)-2-[(3,4-dichlorophenyl)methylidene]hydrazine-1-carbothioamide] | 202 to 204 °C | – | – | – | – | – |
| CN(C)/N=N/c1[nH]cnc1C(N)=O [DTIC, dacarbazine, reference compound] | – | > 500 µM | 413 ± 7.08 µM | 370 ± 9.46 µM | 426 ± 4.74 µM | – |
| S=C(NN=Cc1ccc(Cl)c(Cl)c1)Nc1cccc(Cl)c1 [T15, N-(3-Chlorophenyl)-2-[(3,4-dichlorophenyl)methylidene]hydrazine-1-carbothioamide] | 210 to 212 °C | – | – | – | – | – |
| S=C(NN=Cc1ccc(Cl)c(Cl)c1)Nc1ccccc1Cl.S=C(NN=Cc1ccc(Cl)c(Cl)c1)Nc1ccccc1Cl.[Cl-].[Cl-].[Cu+2] [CuT12] | – | – | – | – | – | IC50 [1]: 42.9 ± 1.17 µM; IC50 [2]: 40.5 ± 0.98 µM; IC50 [3]: 46.1 ± 2.74 µM; IC50 [4]: 157 ± 2.75 µM |
| Cc1ccccc1NC(=S)NN=Cc1ccc(Br)cc1 [T6, 2-[(4-Bromophenyl)methylidene]-N-(2-methylphenyl)hydrazine-1-carbothioamide] | 178 to 180 °C | – | – | – | – | – |
| S=C(NN=Cc1ccc(Br)cc1)Nc1cccc(Cl)c1 [T13, 2-[(4-Bromophenyl)methylidene]-N-(3-chlorophenyl)hydrazine-1-carbothioamide] | 162 to 164 °C | 412.8 ± 3.23 µM | 389 ± 7.06 µM | 399 ± 4.64 µM | 396 ± 6.74 µM | – |
| S=C(NN=Cc1ccc(Br)cc1)Nc1cccc(Cl)c1.[Cl-].[Cl-].[Cu+2] [CuT13] | – | – | – | – | – | IC50 [1]: 130 ± 3.45 µM; IC50 [2]: 110 ± 2.95 µM; IC50 [3]: 119 ± 9.75 µM; IC50 [4]: 148 ± 9.77 µM |
| Cc1ccccc1NC(=S)NN=Cc1ccc(Cl)c(Cl)c1 [T8, 2-[(3,4-Dichlorophenyl)methylidene]-N-(2-methylphenyl)hydrazine-1-carbothioamide] | 200 to 202 °C | – | – | – | – | – |
| COc1ccc(C=NNC(=S)Nc2ccccc2)cc1OC [T1] | – | 358 ± 7.85 µM | 321 ± 2.85 µM | > 500 µM | 488.1 ± 1.66 µM | – |
| S=C(NN=Cc1ccc(Cl)c(Cl)c1)Nc1ccccc1Cl [T12, 2-[(3,4-Dichlorophenyl)methylidene]-N-(2-chlorophenyl)hydrazine-1-carbothioamide] | 210 to 211 °C | 129 ± 7.09 µM | 112 ± 12.8 µM | 99.6 ± 5.76 µM | 177 ± 4.09 µM | – |
